In patent US20240408051A1, “ADMINISTRATION METHOD OF A CHEMOTHERAPEUTIC AGENT” (priority 2021, published 2024):

Columns and labels:
LDH enzyme from U-87 MG = assay: LDH inhibitory activity; format: biochemical; conditions: Stiripentol at 200 μ/M; after 24 hours; 1.7 mM pyruvate, 250 μM β-NADH; homogenized U-87 MG cells
Protocol: Cancer cells up regulate glycolysis to support rapid growth. LDH is an enzyme part of glycolysis. Referring to FIG. 4 LDH inhibitory activity of Stiripentol can be measured by using LDH enzyme from U-87 MG. The cell culture media is treated with HEPES buffer. Cells are homogenized and treated with the respective drug. Cancer cells thereafter are incubated with Oxamate (used as positive control) at 250 μ/M and Stiripentol at 100 and 200 μ/M respectively. The treated cells are mixed with 1.7 mM of pyruvate and 250 μM of β-NADH.

[1] = system: SW 1088 cells, A-172 cells, U-87 MG cells; assay: Cell viability using neutral red dye; format: cell-based; conditions: Stiripentol at 250 μ/M; after 24 hours; SW 1088, A-172, U-87 MG cells; vs untreated negative control
Protocol: According to an embodiment the Cell viability can be determined using MTT dye (3-(4,5-dimethylthiazol-2-yl)-2,5-diphenyltetrazolium bromide) and neutral red dye (3-amino-7-dimethylamino-2-methyl-phenazine hydrochloride). Cells can be incubated with drugs at indicated concentrations and time points. For the MTT assay, at the end of the drug treatments, cells are treated with 0.05% (w/v) MTT dye for 4 h at 37° C. The formazan crystals are dissolved in DMSO and absorbance was measured at 570 nm using the spectrophotometer. Similarly for neutral red assay, Cells are incubated with drugs at indicated concentrations and time points. Briefly, at the end of the drug treatments, cells are incubated with 40 μg/ml neutral red dye for 4 h at 37° C. Cells were then destained using a solution (50% ethanol, 49% deionized water, and 1% glacial acetic acid). Absorbance was measured at 540 nm using Tecan spectrophotometer. Referring to FIG. 2, cell viability can be determined by utilizing natural red dye (3-amino-7-dimethylamino-2-methyl-phenazine hydrochloride). Cancer cells from various cell lines namely SW 1088 cells, A-172 cells, U-87 MG cells are incubated with Stiripentol and Doxorubicin (used as positive control) in the concentration range of 50-250 μ/M. thereafter the cells are treated with 40 μg/ml neutral red dye for 4 h at 37° C. and destained. […]

[2] = system: SW 1088 cells, A-172 cells, U-87 MG cells; assay: Cell viability using MTT dye; format: cell-based; conditions: Stiripentol at 250 μ/M; SW 1088, A-172, U-87 MG cells; vs untreated negative control
Protocol: The present disclosure uses Stiripentol as a chemotherapeutic agent to treat brain tumor. Referring to FIG. 1, the cell viability is determined by using MTT dye (3-(4,5-dimethylthiazol-2-yl)-2,5-diphenyltetrazolium bromide and neutral red dye (3-amino-7-dimethylamino-2-methyl-phenazine hydrochloride). Cancer cells from various cell lines (SW 1088 cells, A-172 cells, U-87 MG cells) are incubated with, Stiripentol in the concentration range of 100-250 μ/M. Simultaneously all the cell lines are incubated with etoposide (positive control) in the concentration of 50 μ/M. The cells lines were thereafter treated with 0.05% (w/v) MTT dye for 4 h at 37° C. and DMSO. The cells lines that received no treatment are used as negative control. […] Cells can be incubated with drugs at indicated concentrations and time points. For the MTT assay, at the end of the drug treatments, cells are treated with 0.05% (w/v) MTT dye for 4 h at 37° C. The formazan crystals are dissolved in DMSO and absorbance was measured at 570 nm using the spectrophotometer. Similarly for neutral red assay, Cells are incubated with drugs at indicated concentrations and time points. Briefly, at the end of the drug treatments, cells are incubated with 40 μg/ml neutral red dye for 4 h at 37° C. […] Absorbance was measured at 540 nm using Tecan spectrophotometer.

[3] = system: SW 1088 cells, A-172 cells, U-87 MG cells; assay: Cell proliferation activity using BrdU assay; format: cell-based; conditions: Stiripentol at 250 μ/M; after 72 hours; SW 1088, A-172, U-87 MG cells; vs untreated negative control
Protocol: Referring to FIG. 3, cell proliferative activity of the cancer cells can be determined using BrdU assay. Cancer cells from cell lines namely SW 1088 cells, A-172 cells, U-87 MG cells are incubated with Stiripentol and Doxorubicin (used as positive control) in the concentration range of 50-250 μ/M. The cell lines are treated with 10 micromolar of BrdU for 2 hours and washed with PBS and Formaldehyde. The treated cell lines are incubated with primary antibody and the secondary antibody. The untreated cells lines are used as negative control here.

CC(C)(C)C(O)/C=C/c1ccc2c(c1)OCO2 (stereo not shown) [Stiripentol, 4,4-dimethyl-1-[3,4-(methylendioxy)-phenyl]-1penten-3-ol]
LDH inhibitory activity (production of LDH enzyme) (LDH enzyme from U-87 MG): substantial decrease in the production of LDH enzyme | viability of the cancer cells (natural red dye) [1]: substantial reduction in the viability | cell viability (MTT dye) [2]: substantial decrease in the cell viability | cell proliferation activity (BrdU) [3]: substantial reduction in the cell proliferation activity
